Measurements as given in patent US10494378B2, “Fused ring pyrimidine compound, intermediate, and preparation method, composition and use thereof” (GUANGZHOU MAXINOVEL PHARMACEUTICALS CO., LTD., priority 2015, dated 2019).

Columns and labels:
Format in all cases: biochemical
FYN kinase = biological target: T1, FYN kinase (Homo sapiens, UniProt P06241); assay: IC50 evaluation assay of Src family kinase inhibition: FYN; settings: 28° C.; average of two tests; read-out: IC50 (nM) inhibiting Src family kinase FYN
T1 construct: purchased Carna 08-068
T1 sequence (P06241 whole entry): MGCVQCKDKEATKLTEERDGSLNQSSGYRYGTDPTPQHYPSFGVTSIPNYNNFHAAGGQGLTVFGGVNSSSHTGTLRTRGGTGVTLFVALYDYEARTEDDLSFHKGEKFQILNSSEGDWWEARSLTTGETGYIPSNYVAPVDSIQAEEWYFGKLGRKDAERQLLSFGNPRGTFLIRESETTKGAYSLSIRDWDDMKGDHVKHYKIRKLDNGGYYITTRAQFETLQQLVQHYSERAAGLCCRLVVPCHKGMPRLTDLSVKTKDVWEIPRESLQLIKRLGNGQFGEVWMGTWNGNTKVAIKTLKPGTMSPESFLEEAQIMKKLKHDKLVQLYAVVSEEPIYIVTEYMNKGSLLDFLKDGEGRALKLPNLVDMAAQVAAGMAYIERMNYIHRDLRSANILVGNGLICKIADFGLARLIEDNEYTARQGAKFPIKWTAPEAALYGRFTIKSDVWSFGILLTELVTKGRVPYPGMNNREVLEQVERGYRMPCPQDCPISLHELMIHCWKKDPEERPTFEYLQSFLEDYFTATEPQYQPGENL
Protocol: (§1) 1. The compound was dissolved in 100% DMSO, diluted into solutions with appropriate concentration gradients with water according to experimental requirement, and added to a 96-well plate.
(§2) 2. c-Src kinase (Carna, Cat. No. 08-173, Lot. No. 05CBS-1367), LYNαkinase (Carna, Cat. No. 08-171, Lot. No. 06CBS-3296D), FYN kinase (Carna, Cat. No. 08-068, Lot. No. 05CBS-1032), LCK kinase (Carna, Cat. No. 08-170, Lot. No. 07CBS-2482), HCK kinase (BPS, Cat. No. 40440, Lot. No. 1001), FGR kinase (Carna, Cat. No. 08-166, Lot. No. 05CBS-2781), YES kinase (Carna, Cat. No. 08-175, Lot. No. 06CBS-3247) were diluted to the optimum concentration with the following buffer solution: 50 mM HEPES, pH 7.5, 0.0015% Brij-35, 10 mM MgCl2, 2 mM DTT. Transfer to the 96-well plate and incubate with the compound at 28° C. for a period of time.
(§3) 3. The buffer solution (100 mM HEPES, pH 7.5, 0.0015% Brij-35, 0.2% Coating Reagent and […]) was added to terminate the reaction.
(§4) 4. The conversion rate was read with Caliper Reader. The inhibition rate was calculated as the average of two tests.

FLT3 kinase (FLT3-WT) = biological target: T2, FLT3 kinase (FLT3-WT) (Homo sapiens, UniProt P36888); assay: IC50 evaluation assay of FLT3 kinase inhibition (Caliper); settings: 28° C.; average of two tests; read-out: IC50 (nM) inhibiting FLT3-WT kinase
T2 construct: purchased Carna 08-154
T2 sequence (P36888 27-993): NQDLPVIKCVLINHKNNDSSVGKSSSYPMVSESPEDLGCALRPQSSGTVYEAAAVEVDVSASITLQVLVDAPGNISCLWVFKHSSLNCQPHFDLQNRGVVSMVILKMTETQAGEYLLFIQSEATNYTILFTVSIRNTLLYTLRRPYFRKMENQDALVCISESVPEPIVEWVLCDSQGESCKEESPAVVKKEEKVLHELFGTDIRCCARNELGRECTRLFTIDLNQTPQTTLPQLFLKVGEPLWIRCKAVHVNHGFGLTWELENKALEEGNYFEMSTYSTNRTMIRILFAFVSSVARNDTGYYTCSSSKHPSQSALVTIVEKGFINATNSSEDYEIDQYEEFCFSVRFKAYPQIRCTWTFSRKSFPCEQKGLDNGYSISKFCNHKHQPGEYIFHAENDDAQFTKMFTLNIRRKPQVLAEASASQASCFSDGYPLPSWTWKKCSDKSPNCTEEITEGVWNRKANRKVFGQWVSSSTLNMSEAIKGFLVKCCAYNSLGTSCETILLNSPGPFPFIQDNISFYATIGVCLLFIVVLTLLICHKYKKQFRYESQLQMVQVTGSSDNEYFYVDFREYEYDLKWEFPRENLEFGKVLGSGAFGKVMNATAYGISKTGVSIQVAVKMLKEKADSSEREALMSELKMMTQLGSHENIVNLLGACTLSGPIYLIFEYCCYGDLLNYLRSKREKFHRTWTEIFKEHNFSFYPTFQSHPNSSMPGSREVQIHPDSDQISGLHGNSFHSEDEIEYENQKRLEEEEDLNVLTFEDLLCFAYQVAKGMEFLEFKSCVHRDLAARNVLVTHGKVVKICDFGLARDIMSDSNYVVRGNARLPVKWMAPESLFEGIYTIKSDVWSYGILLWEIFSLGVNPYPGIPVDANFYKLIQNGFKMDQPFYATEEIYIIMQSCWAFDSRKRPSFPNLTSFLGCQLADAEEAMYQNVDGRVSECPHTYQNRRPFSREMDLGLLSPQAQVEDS
Protocol: as §1
2. FLT3 kinase (Carna, Cat. No. 08-154, Lot. No. 07CBS-2350), FLT3-ITD kinase (Invitrogen, Cat. No. PV6191, Lot. No. 1753453) and FLT3-D835Y kinase (Invitrogen, Cat. No. PR7450A, Lot. No. 1629729C) were diluted to the optimum concentration with the following buffer solution: 50 mM HEPES, pH 7.5, 0.0015% Brij-35, 10 mM MgCl2, 2 mM DTT. Transfer to the 96-well plate and incubate with the compound at 28° C. for a period of time.
as §3, §4

FGFR2 kinase = biological target: T3, FGFR2 kinase (Homo sapiens, UniProt P21802); assay: IC50 evaluation assay of FGFR2 kinase inhibition (Caliper); settings: 28° C.; average of two tests; read-out: IC50 (nM) inhibiting FGFR 2 kinase
T3 construct: purchased Carna 08-134
T3 sequence (P21802 22-821): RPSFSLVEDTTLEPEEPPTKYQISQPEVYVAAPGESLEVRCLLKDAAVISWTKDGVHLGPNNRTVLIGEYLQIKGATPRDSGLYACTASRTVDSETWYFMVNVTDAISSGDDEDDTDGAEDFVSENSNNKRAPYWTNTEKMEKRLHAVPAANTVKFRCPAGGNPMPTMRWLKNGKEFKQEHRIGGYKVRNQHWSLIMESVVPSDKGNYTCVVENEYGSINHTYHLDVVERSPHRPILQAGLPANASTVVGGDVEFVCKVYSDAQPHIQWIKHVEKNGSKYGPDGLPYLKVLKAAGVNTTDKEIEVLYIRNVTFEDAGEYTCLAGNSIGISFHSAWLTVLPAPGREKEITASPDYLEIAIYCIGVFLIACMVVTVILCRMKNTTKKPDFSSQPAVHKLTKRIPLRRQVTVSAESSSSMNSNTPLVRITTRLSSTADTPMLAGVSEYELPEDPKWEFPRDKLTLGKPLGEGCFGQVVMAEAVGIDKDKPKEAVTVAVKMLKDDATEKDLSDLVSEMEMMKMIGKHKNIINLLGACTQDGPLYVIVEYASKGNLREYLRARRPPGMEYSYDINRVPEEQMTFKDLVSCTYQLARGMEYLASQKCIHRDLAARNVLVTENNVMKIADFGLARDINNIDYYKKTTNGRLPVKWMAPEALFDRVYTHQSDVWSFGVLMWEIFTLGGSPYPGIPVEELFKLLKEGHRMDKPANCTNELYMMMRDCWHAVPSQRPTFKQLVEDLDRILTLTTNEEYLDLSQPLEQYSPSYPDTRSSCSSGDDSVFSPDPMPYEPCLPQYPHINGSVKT
Protocol: as §1
(§5) 2. FGFR1 kinase (Carna, Cat. No. 08-133, Lot. No. 09CBS-0989) and FGFR2 kinase (Carna, Cat. No. 08-134, Lot. No. 07CBS-2468), JAK3 kinase (Carna, Cat. No. 08-135, Lot. No. 06CBS-3177) were diluted to the optimum concentration with the following buffer solution: 50 mM HEPES, pH 7.5, 0.0015% Brij-35, 2 mM DTT. Transfer to the 96-well plate and incubate with the compound at 28° C. for a period of time.
as §3, §4

LCK kinase = biological target: T4, LCK kinase (Homo sapiens, UniProt P06239); assay: IC50 evaluation assay of Src family kinase inhibition: LCK; settings: 28° C.; average of two tests; read-out: IC50 (nM) inhibiting Src family kinase LCK
T4 construct: purchased Carna 08-170
T4 sequence (P06239 whole entry): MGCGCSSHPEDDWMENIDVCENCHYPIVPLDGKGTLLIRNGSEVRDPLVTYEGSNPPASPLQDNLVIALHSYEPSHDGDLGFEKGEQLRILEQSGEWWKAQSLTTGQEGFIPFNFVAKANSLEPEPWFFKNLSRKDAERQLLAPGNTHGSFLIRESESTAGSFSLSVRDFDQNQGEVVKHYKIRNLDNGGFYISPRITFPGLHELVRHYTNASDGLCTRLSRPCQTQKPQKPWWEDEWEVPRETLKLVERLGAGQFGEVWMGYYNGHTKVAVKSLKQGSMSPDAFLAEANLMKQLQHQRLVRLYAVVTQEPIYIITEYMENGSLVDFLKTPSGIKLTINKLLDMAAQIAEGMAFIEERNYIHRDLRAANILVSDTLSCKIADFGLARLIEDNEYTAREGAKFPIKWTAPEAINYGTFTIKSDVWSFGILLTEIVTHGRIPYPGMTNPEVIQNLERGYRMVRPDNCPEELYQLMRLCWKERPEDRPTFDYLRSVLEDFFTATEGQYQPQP
Protocol: as §1, §2, §3, §4

LYNα kinase = biological target: T5, LYNα kinase (Homo sapiens, UniProt P07948); assay: IC50 evaluation assay of Src family kinase inhibition: LYNα; settings: 28° C.; average of two tests; read-out: IC50 (nM) inhibiting Src family kinase LYNα
T5 construct: purchased Carna 08-171
T5 sequence (P07948 whole entry): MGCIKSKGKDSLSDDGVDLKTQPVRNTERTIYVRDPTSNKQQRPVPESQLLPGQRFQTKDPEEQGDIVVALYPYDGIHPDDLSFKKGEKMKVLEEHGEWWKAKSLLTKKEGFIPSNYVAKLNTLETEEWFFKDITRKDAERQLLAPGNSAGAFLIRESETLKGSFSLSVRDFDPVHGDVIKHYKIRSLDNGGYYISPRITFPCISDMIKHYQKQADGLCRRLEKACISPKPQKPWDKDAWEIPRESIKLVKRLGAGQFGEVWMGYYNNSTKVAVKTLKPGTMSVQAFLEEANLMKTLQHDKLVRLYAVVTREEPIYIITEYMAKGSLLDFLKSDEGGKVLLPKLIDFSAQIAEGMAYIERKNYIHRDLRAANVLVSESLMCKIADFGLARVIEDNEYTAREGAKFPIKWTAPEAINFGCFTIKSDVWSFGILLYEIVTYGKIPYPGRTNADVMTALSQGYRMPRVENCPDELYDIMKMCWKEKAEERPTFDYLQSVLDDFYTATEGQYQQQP
Protocol: as §1, §2, §3, §4

HCK kinase = biological target: T6, HCK kinase (Homo sapiens, UniProt P08631); assay: IC50 evaluation assay of Src family kinase inhibition: HCK; settings: 28° C.; average of two tests; read-out: IC50 (nM) inhibiting Src family kinase HCK
T6 construct: purchased BPS 40440
T6 sequence (P08631 whole entry): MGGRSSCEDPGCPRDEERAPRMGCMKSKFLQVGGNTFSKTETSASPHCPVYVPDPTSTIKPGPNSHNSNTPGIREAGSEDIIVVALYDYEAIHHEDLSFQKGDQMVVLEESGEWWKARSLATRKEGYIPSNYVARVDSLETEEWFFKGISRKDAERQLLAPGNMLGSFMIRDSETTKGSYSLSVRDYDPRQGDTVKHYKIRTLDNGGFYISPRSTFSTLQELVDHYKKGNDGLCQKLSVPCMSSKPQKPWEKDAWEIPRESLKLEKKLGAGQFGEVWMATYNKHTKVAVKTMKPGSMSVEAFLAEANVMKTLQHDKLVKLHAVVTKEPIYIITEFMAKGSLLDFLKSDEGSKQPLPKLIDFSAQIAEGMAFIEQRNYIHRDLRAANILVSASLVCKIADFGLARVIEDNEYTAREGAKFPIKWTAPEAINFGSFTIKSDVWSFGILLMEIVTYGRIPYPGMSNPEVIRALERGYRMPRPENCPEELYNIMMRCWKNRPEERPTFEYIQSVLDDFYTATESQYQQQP
Protocol: as §1, §2, §3, §4

FGFR1 kinase = biological target: T7, FGFR1 kinase (Homo sapiens, UniProt P11362); assay: IC50 evaluation assay of FGFR1 kinase inhibition (Caliper); settings: 28° C.; average of two tests; read-out: IC50 (nM) inhibiting FGFR 1 kinase
T7 construct: purchased Carna 08-133
T7 sequence (P11362 22-822): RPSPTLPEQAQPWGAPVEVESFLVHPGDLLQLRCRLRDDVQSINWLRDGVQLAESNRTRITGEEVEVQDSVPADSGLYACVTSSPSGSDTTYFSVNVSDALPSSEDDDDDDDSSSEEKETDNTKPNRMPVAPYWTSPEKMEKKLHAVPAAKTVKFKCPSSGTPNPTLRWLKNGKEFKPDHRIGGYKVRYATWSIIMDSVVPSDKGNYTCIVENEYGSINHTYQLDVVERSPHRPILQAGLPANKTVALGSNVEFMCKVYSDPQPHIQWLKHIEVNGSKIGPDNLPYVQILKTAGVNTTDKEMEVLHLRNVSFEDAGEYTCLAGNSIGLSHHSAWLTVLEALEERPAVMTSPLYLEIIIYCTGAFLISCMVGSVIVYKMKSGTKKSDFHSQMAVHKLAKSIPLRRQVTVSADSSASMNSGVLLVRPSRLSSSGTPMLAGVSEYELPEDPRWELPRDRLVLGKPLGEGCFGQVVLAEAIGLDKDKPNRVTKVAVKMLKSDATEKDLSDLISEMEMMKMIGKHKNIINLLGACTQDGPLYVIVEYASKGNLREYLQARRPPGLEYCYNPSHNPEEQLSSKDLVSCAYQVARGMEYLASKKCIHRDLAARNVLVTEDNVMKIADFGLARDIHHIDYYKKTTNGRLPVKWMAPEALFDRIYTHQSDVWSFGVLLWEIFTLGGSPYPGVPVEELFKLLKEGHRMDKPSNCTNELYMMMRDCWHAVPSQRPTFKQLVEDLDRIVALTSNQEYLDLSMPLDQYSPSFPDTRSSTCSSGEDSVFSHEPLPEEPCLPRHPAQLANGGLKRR
Protocol: as §1, §5, §3, §4

SMILES | IC50 (FYN kinase) [nM] | IC50 (FLT3 kinase (FLT3-WT)) [nM] | IC50 (FGFR2 kinase) [nM] | IC50 (LCK kinase) [nM] | IC50 (LYNα kinase) [nM] | IC50 (HCK kinase) [nM] | IC50 (FGFR1 kinase) [nM]
COc1cc(F)ccc1-c1c(C)sc2cnc(Nc3cnn(C4CCNCC4)c3)nc12 [Compound 31, N-[7-(4-fluoro-2-methoxyphenyl)-6-methylthieno[3,2-d]pyrimidinyl-2-yl]-1-(piperidinyl-4-yl)-1H-pyrazol-4-amine] | 3.7 | 0.28 | 10 | 5.5 | 1.3 | 30 | 5.1
COc1cc(F)ccc1-c1c(C)sc2cnc(Nc3cnn(C4CCN(CCO)CC4)c3)nc12 [Compound 34, 2-[4-(4-{[7-(4-fluoro-2-methoxyphenyl)-6-methylthieno[3,2-d]pyrimidinyl-2-yl]amino}-1H-pyrazol-1-yl)-piperidinyl-1-yl]-1-ethanol] | < 5 | < 5 | 8.9 | < 5 | < 5 | 27 | 3.8
